Like-named read-outs stand apart in the source and are kept apart here.
Tests used:
Pseudomonas aeruginosa = test: MIC, CLSI broth microdilution, Pseudomonas aeruginosa panel; format: cell-based; conditions: Pseudomonas aeruginosa, read-out: MIC
Procedure: (§1) Minimum inhibitory concentrations (MIC) were determined by reference Clinical and Laboratory Standards Institute (CLSI) broth microdilution methods per M7-A7 [2006]. Quality control ranges utilizing E. coli ATCC 25922, P. aeruginosa ATCC 27853 and S. aureus ATCC 29213, and interpretive criteria for comparator agents were as published in CLSI M100-S17 [2007]. Briefly, serial two-fold dilutions of the test compounds were prepared at 2× concentration in Mueller Hinton Broth. The compound dilutions were mixed in 96-well assay plates in a 1:1 ratio with bacterial inoculum. The inoculum was prepared by suspension of a colony from an agar plate that was prepared the previous day. Bacteria were suspended in sterile saline and added to each assay plate to obtain a final concentration of 5×10^5 CFU/mL. The plates were incubated at 35 C for 20 hours in ambient air.
The MIC panel presented in Table 1 contains 27 isolates of Pseudomonas aeruginosa: strains 1-22 are clinical isolates from around the world collected between 2004-2007 which contain representative resistance mechanisms commonly found in Pseudomonas, such as the AAC(6′)-I, AAC(6′)-II, APH(3′)-IIb, ANT(2″)-I, and perm/efflux; strains 23-27 are susceptible.

Acinetobacter baumannii = test: MIC, CLSI broth microdilution, Acinetobacter baumannii panel; format: cell-based; conditions: Acinetobacter baumannii, read-out: MIC
Procedure: as §1
The MIC panel presented in Table 2 contains 29 isolates of Acinetobacter baumannii: strains 1-24 are clinical isolates from around the world collected between 2004-2007 which contain representative resistance mechanisms commonly found in Acinetobacter baumannii, such as AAC(3)-I and II, AAC(6′)-I, ANT(2″)-I, APH(3′)-VI, and perm/efflux; strains 25-29 are susceptible.

[1] = P. aeruginosa clinical strain 1 (resistant clinical isolate)
[2] = P. aeruginosa clinical strain 2 (resistant clinical isolate)
[3] = P. aeruginosa clinical strain 3 (resistant clinical isolate)
[4] = P. aeruginosa clinical strain 4 (resistant clinical isolate)
[5] = P. aeruginosa clinical strain 5 (resistant clinical isolate)
[6] = P. aeruginosa clinical strain 6 (resistant clinical isolate)
[7] = P. aeruginosa clinical strain 7 (resistant clinical isolate)
[8] = P. aeruginosa clinical strain 8 (resistant clinical isolate)
[9] = P. aeruginosa clinical strain 9 (resistant clinical isolate)
[10] = P. aeruginosa clinical strain 10 (resistant clinical isolate)
[11] = P. aeruginosa clinical strain 11 (resistant clinical isolate)
[12] = P. aeruginosa clinical strain 12 (resistant clinical isolate)
[13] = P. aeruginosa clinical strain 13 (resistant clinical isolate)
[14] = P. aeruginosa clinical strain 14 (resistant clinical isolate)
[15] = P. aeruginosa clinical strain 15 (resistant clinical isolate)
[16] = P. aeruginosa clinical strain 16 (resistant clinical isolate)
[17] = P. aeruginosa clinical strain 17 (resistant clinical isolate)
[18] = P. aeruginosa clinical strain 18 (resistant clinical isolate)
[19] = P. aeruginosa clinical strain 19 (resistant clinical isolate)
[20] = P. aeruginosa clinical strain 20 (resistant clinical isolate)
[21] = P. aeruginosa clinical strain 21 (resistant clinical isolate)
[22] = P. aeruginosa clinical strain 22 (resistant clinical isolate)
[23] = P. aeruginosa strain 23 (susceptible)
[24] = P. aeruginosa strain 24 (susceptible)
[25] = P. aeruginosa strain 25 (susceptible)
[26] = P. aeruginosa strain 26 (susceptible)
[27] = P. aeruginosa strain 27 (susceptible)
[28] = A. baumannii clinical strain 1 (resistant clinical isolate)
[29] = A. baumannii clinical strain 2 (resistant clinical isolate)
[30] = A. baumannii clinical strain 3 (resistant clinical isolate)
[31] = A. baumannii clinical strain 4 (resistant clinical isolate)
[32] = A. baumannii clinical strain 5 (resistant clinical isolate)
[33] = A. baumannii clinical strain 6 (resistant clinical isolate)
[34] = A. baumannii clinical strain 7 (resistant clinical isolate)
[35] = A. baumannii clinical strain 8 (resistant clinical isolate)
[36] = A. baumannii clinical strain 9 (resistant clinical isolate)
[37] = A. baumannii clinical strain 10 (resistant clinical isolate)
[38] = A. baumannii clinical strain 11 (resistant clinical isolate)
[39] = A. baumannii clinical strain 12 (resistant clinical isolate)
[40] = A. baumannii clinical strain 13 (resistant clinical isolate)
[41] = A. baumannii clinical strain 14 (resistant clinical isolate)
[42] = A. baumannii clinical strain 15 (resistant clinical isolate)
[43] = A. baumannii clinical strain 16 (resistant clinical isolate)
[44] = A. baumannii clinical strain 17 (resistant clinical isolate)
[45] = A. baumannii clinical strain 18 (resistant clinical isolate)
[46] = A. baumannii clinical strain 19 (resistant clinical isolate)
[47] = A. baumannii clinical strain 20 (resistant clinical isolate)
[48] = A. baumannii clinical strain 21 (resistant clinical isolate)
[49] = A. baumannii clinical strain 22 (resistant clinical isolate)
[50] = A. baumannii clinical strain 23 (resistant clinical isolate)
[51] = A. baumannii clinical strain 24 (resistant clinical isolate)
[52] = A. baumannii strain 25 (susceptible)
[53] = A. baumannii strain 26 (susceptible)
[54] = A. baumannii strain 27 (susceptible)
[55] = A. baumannii strain 28 (susceptible)
[56] = A. baumannii strain 29 (susceptible)

Measured: MIC

NCC[C@H](O)C(=O)N[C@@H]1C[C@H](N)[C@@H](O[C@H]2O[C@H](CNCCO)[C@@H](O)C[C@H]2N)[C@H](O[C@@H]2O[C@H](CO)[C@@H](O[C@H]3O[C@@H](CN)[C@@H](O)[C@H](O)[C@H]3N)[C@H]2O)[C@H]1O [Compound 18]
≤ 1 µg/mL: Pseudomonas aeruginosa; [1] | Pseudomonas aeruginosa; [2] | Pseudomonas aeruginosa; [7] | Pseudomonas aeruginosa; [11] | Pseudomonas aeruginosa; [23] | Pseudomonas aeruginosa; [24] | Pseudomonas aeruginosa; [25] | Pseudomonas aeruginosa; [26] | Pseudomonas aeruginosa; [27] | Acinetobacter baumannii; [34] | Acinetobacter baumannii; [36] | Acinetobacter baumannii; [38] | Acinetobacter baumannii; [39] | Acinetobacter baumannii; [40] | Acinetobacter baumannii; [42] | Acinetobacter baumannii; [48] | Acinetobacter baumannii; [50] | Acinetobacter baumannii; [52] | Acinetobacter baumannii; [54] | Acinetobacter baumannii; [55] | Acinetobacter baumannii; [56]
8 to 16 µg/mL: Pseudomonas aeruginosa; [8] | Pseudomonas aeruginosa; [10] | Pseudomonas aeruginosa; [21] | Acinetobacter baumannii; [29] | Acinetobacter baumannii; [45] | Acinetobacter baumannii; [47]
16 to 32 µg/mL: Pseudomonas aeruginosa; [13] | Pseudomonas aeruginosa; [19] | Pseudomonas aeruginosa; [20] | Acinetobacter baumannii; [31] | Acinetobacter baumannii; [49] | Acinetobacter baumannii; [51]
1 to 8 µg/mL: Pseudomonas aeruginosa; [3] | Pseudomonas aeruginosa; [4] | Pseudomonas aeruginosa; [5] | Pseudomonas aeruginosa; [6] | Pseudomonas aeruginosa; [9] | Pseudomonas aeruginosa; [12] | Pseudomonas aeruginosa; [14] | Pseudomonas aeruginosa; [15] | Pseudomonas aeruginosa; [16] | Pseudomonas aeruginosa; [17] | Pseudomonas aeruginosa; [18] | Pseudomonas aeruginosa; [22] | Acinetobacter baumannii; [28] | Acinetobacter baumannii; [30] | Acinetobacter baumannii; [32] | Acinetobacter baumannii; [33] | Acinetobacter baumannii; [35] | Acinetobacter baumannii; [37] | Acinetobacter baumannii; [41] | Acinetobacter baumannii; [43] | Acinetobacter baumannii; [44] | Acinetobacter baumannii; [46] | Acinetobacter baumannii; [53]

NCC[C@H](O)C(=O)N[C@@H]1C[C@H](N)[C@@H](O[C@H]2O[C@H](CN)[C@@H](O)[C@H](O)[C@H]2O)[C@H](O)[C@H]1O[C@H]1O[C@H](CO)[C@@H](O)[C@H](N)[C@H]1O [AMK, amikacin]
≥ 32 µg/mL: Pseudomonas aeruginosa; [1] | Pseudomonas aeruginosa; [2] | Pseudomonas aeruginosa; [3] | Pseudomonas aeruginosa; [4] | Pseudomonas aeruginosa; [5] | Pseudomonas aeruginosa; [16] | Pseudomonas aeruginosa; [17] | Pseudomonas aeruginosa; [18] | Pseudomonas aeruginosa; [19] | Pseudomonas aeruginosa; [20] | Acinetobacter baumannii; [28] | Acinetobacter baumannii; [29] | Acinetobacter baumannii; [32] | Acinetobacter baumannii; [33] | Acinetobacter baumannii; [34] | Acinetobacter baumannii; [35] | Acinetobacter baumannii; [38] | Acinetobacter baumannii; [39] | Acinetobacter baumannii; [40] | Acinetobacter baumannii; [41] | Acinetobacter baumannii; [42] | Acinetobacter baumannii; [43] | Acinetobacter baumannii; [44] | Acinetobacter baumannii; [45] | Acinetobacter baumannii; [48] | Acinetobacter baumannii; [49] | Acinetobacter baumannii; [50] | Acinetobacter baumannii; [51]
≤ 1 µg/mL: Pseudomonas aeruginosa; [11] | Pseudomonas aeruginosa; [12] | Pseudomonas aeruginosa; [27] | Acinetobacter baumannii; [52] | Acinetobacter baumannii; [56]
1 to 8 µg/mL: Pseudomonas aeruginosa; [7] | Pseudomonas aeruginosa; [13] | Pseudomonas aeruginosa; [14] | Pseudomonas aeruginosa; [23] | Pseudomonas aeruginosa; [24] | Pseudomonas aeruginosa; [25] | Pseudomonas aeruginosa; [26] | Acinetobacter baumannii; [36] | Acinetobacter baumannii; [37] | Acinetobacter baumannii; [46] | Acinetobacter baumannii; [47] | Acinetobacter baumannii; [53] | Acinetobacter baumannii; [54] | Acinetobacter baumannii; [55]
16 to 32 µg/mL: Pseudomonas aeruginosa; [8] | Pseudomonas aeruginosa; [10] | Pseudomonas aeruginosa; [21] | Pseudomonas aeruginosa; [22] | Acinetobacter baumannii; [31]
8 to 16 µg/mL: Pseudomonas aeruginosa; [6] | Pseudomonas aeruginosa; [9] | Pseudomonas aeruginosa; [15] | Acinetobacter baumannii; [30]

From patent US8653041B2, “Antibacterial aminoglycoside analogs” (Achaogen, Inc., priority 2010, dated 2014)
